Test systems include MDA-MB-435; NCI/ADR-RES ovarian; HOP-92 NSCLC; NCI-H226 lung; RPMI-8226 leukemia; BT-549 breast; HCT-116 colon; OVCAR-8 ovarian; OVCAR-5 ovarian; OVCAR-4 ovarian.
Common to all, as to experiment: NCI-60 cell line screen, 48 h

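48-hour exposure; five concentrations; linearly interpolated endpoints. Here, GI50 denotes the concentration required for 50% inhibition of growth. TGI is the concentration that stops growth completely.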

`Cc1ncc(C(=O)Nc2ccc(CN3CCN(C)CC3)c(C(F)(F)F)c2)cc1C#Cc1cnc(N)c2ccncc12`: the GI50 was 1.43 µM in the assay on MDA-MB-435; 1.61 µM with NCI/ADR-RES ovarian; 0.615 µM in the assay with HOP-92 NSCLC; 0.527 µM in the assay with NCI-H226 lung; 2.18 µM in the assay on RPMI-8226 leukemia; 2.85 µM in the assay on BT-549 breast. Also, the GI50 in the assay on HCT-116 colon is 1.19 µM; in the assay on OVCAR-8 ovarian, 1.69 µM; with OVCAR-5 ovarian, 1.45 µM. The TGI came to 2.86 µM with MDA-MB-435; 5.47 µM in the assay with NCI/ADR-RES ovarian; 3.62 µM in the assay on HOP-92 NSCLC; 14.3 µM with NCI-H226 lung; 5.46 µM in the assay with RPMI-8226 leukemia; 8.33 µM with BT-549 breast. The TGI with HCT-116 colon was 2.56 µM; in the assay on OVCAR-8 ovarian it was 6.55 µM; with OVCAR-5 ovarian, 4.53 µM.

As to `COc1cc2c(c(OC)c1OC)-c1ccc(SC)c(=O)cc1C(NC=O)CC2` (centres undefined), the TGI with MDA-MB-435 is less than 0.01 µM; in the assay with NCI/ADR-RES ovarian it was 0.273 µM; in the assay with HOP-92 NSCLC, greater than 100 µM; in the assay on NCI-H226 lung it was 0.754 µM; in the assay on RPMI-8226 leukemia, 47.1 µM; in the assay with BT-549 breast, greater than 100 µM. Also, the TGI in the assay on OVCAR-8 ovarian was greater than 68.5 µM; in the assay on OVCAR-4 ovarian it was greater than 100 µM; in the assay on OVCAR-5 ovarian, greater than 94.3 µM.

For the molecule `C#C[C@]1(O)CCC2C3CCc4cc(O)ccc4C3CC[C@@]21C` (some centres undefined), the GI50 is 0.628 µM in the assay on MDA-MB-435; 3.14 µM in the assay on NCI/ADR-RES ovarian; 5.91 µM in the assay with HOP-92 NSCLC; 10.3 µM in the assay with NCI-H226 lung; 4.64 µM in the assay on BT-549 breast; 4.68 µM in the assay with HCT-116 colon. Further, the figures for the GI50 in the assay on OVCAR-8 ovarian, with OVCAR-4 ovarian and in the assay with OVCAR-5 ovarian were 5.8 µM, 6.76 µM and 17.3 µM, respectively. Also, the TGI with MDA-MB-435 came to 9.59 µM; in the assay on NCI/ADR-RES ovarian, 25.4 µM; with HOP-92 NSCLC, 19.9 µM; with NCI-H226 lung, 30.8 µM; with BT-549 breast, 18.4 µM; with HCT-116 colon, 20 µM. The TGI in the assay on OVCAR-8 ovarian was 37.2 µM; in the assay with OVCAR-4 ovarian it was 33.6 µM; in the assay on OVCAR-5 ovarian, greater than 100 µM.

For the molecule `COc1cc(-c2cc(-c3cc4c([nH]c5ccccc54)c(-c4cc(OC)c(OC)c(OC)c4)n3)cc(-c3ccccc3)n2)cc(OC)c1OC`, the GI50 with NCI/ADR-RES ovarian was 3.12 µM; with HOP-92 NSCLC, 1.45 µM; in the assay with NCI-H226 lung, 7.56 µM; in the assay on RPMI-8226 leukemia, 2.88 µM; in the assay with BT-549 breast, 6.74 µM; in the assay with HCT-116 colon, 4.02 µM. The GI50 is 4.01 µM with OVCAR-8 ovarian, 5.31 µM with OVCAR-4 ovarian and 25.7 µM in the assay with OVCAR-5 ovarian. Further, the TGI with NCI/ADR-RES ovarian was 94.8 µM; in the assay with HOP-92 NSCLC it was 6.25 µM; in the assay on NCI-H226 lung, greater than 100 µM; in the assay with RPMI-8226 leukemia, 18.5 µM; in the assay with BT-549 breast, 91.2 µM; with HCT-116 colon, greater than 100 µM. For the same molecule, the TGI with OVCAR-8 ovarian was 43.4 µM; with OVCAR-4 ovarian, 74.2 µM; with OVCAR-5 ovarian, greater than 100 µM.

Take `Cc1nn(-c2ccc(Cl)cc2)c2nc3c(nc12)C(=O)c1ccccc1-3`: the GI50 in the assay with MDA-MB-435 was greater than 100 µM; in the assay with NCI/ADR-RES ovarian, greater than 100 µM; with NCI-H226 lung, 25.6 µM; with RPMI-8226 leukemia, greater than 100 µM; in the assay on BT-549 breast it was greater than 100 µM; with OVCAR-5 ovarian, greater than 100 µM. Also, the TGI in the assay on MDA-MB-435, in the assay on NCI/ADR-RES ovarian, in the assay with NCI-H226 lung, in the assay on RPMI-8226 leukemia, in the assay with BT-549 breast and with OVCAR-5 ovarian was greater than 100 µM in each case.

Consider `O=C1C=CC(=O)c2cc3cc(CBr)ccc3cc21`, for which the GI50 was 11.8 µM in the assay with MDA-MB-435; 6.78 µM in the assay with NCI/ADR-RES ovarian; 3.18 µM in the assay on HOP-92 NSCLC; 27.4 µM in the assay on NCI-H226 lung; 2.75 µM in the assay on BT-549 breast; 0.606 µM with HCT-116 colon. The figures for the GI50 in the assay with OVCAR-8 ovarian and in the assay on OVCAR-5 ovarian were 5.88 µM and 9.96 µM, respectively. In addition, the TGI with MDA-MB-435 is 33.7 µM; in the assay with NCI/ADR-RES ovarian, 32.4 µM; with HOP-92 NSCLC, 9.93 µM; in the assay with NCI-H226 lung, 71.2 µM; with BT-549 breast, 8.96 µM; with HCT-116 colon it was 1.89 µM. For the same molecule, the results for the TGI in the assay on OVCAR-8 ovarian and with OVCAR-5 ovarian were greater than 77.3 µM and 33.6 µM, respectively.

As to `O=C(c1ccccc1Br)C(F)(F)F`, the TGI with MDA-MB-435, in the assay with NCI/ADR-RES ovarian, in the assay with NCI-H226 lung, in the assay with RPMI-8226 leukemia, in the assay on BT-549 breast and with HCT-116 colon was greater than 100 µM in each case. In addition, the TGI with OVCAR-8 ovarian, with OVCAR-4 ovarian and with OVCAR-5 ovarian was greater than 100 µM in each case.

For the molecule `Oc1cccnc1[Se]`, the TGI with MDA-MB-435, in the assay with NCI/ADR-RES ovarian, in the assay with HOP-92 NSCLC, with NCI-H226 lung, in the assay with RPMI-8226 leukemia and with BT-549 breast was greater than 100 µM in each case. The TGI with HCT-116 colon, in the assay on OVCAR-8 ovarian and with OVCAR-5 ovarian was greater than 100 µM each time.

The values are drawn from PubChem BioAssay (NCI).
